These results are taken from paper PMC6372542 (Frontiers in Pediatrics, 2019).

Where “and” joins values, the source holds several entries; their conditions need not be identical. Identical values can stand only once. Like-named read-outs stand apart in the source and are kept apart here.

The conditions of data set [1]: cited from earlier work; for half-life: adolescents, ref [17].
Data set [2] is described as follows: Plasma concentrations of protease inhibitors, ritonavir and efavirenz (antiretroviral exposures). The note with it: for AUC / Cmax: human, in vivo; for Clast: plasma, median (interquartile range), range for lopinavir, median (range) for efavirenz. The text has this:
(§1) Study procedures were standardized across multiple study arms. The single pharmacokinetic visit included a medication history, adherence survey, and a CYP2D6 phenotype assessment (the other psychotropic study medications were primarily metabolized by CYP 2D6). Participants with HIV had to be taking their antiretroviral medications consistently for at least 4 weeks prior to sampling. […] Plasma samples were drawn at pre-dose and 2, 4, 6, 12, and 24-h post-dose.
Plasma concentrations of primary protease inhibitors, ritonavir and efavirenz were measured at the University of California San Diego Pediatric Pharmacology Laboratory by validated reverse phase high performance liquid chromatography or mass spectrometry methods.

Data set [3] in a line: Non-compartmental plasma pharmacokinetics of sertraline and N-desmethylsertraline in HIV-infected and uninfected youth (IMPAACT P1080). The note with it: for C0: pre-dose plasma; for CL/F: po, non-compartmental apparent oral clearance; for concentration: read-out: Norm-C0.
Text: International Maternal Pediatric Adolescent AIDS Clinical Trials Network (IMPAACT) P1080 was a multicenter, pilot study of psychiatric and antiretroviral medication concentrations in HIV-1-infected and uninfected youth.
as §1
Analytes and internal standard were extracted with 600 μL of acetonitrile from 200 μL of plasma, then eluted from a Gemini C18 column in under 4 min using acetonitrile/water/formic acid (85:15:0.1, v/v/v) as the mobile phase.
The area under the concentration vs. time curve from time 0–24 h post dose (AUC0−24) was estimated using the trapezoidal rule. Apparent oral clearance (CL/F), where F is bioavailability, was calculated as dose divided by AUC0−24. The apparent volume of distribution (V/F) was determined as CL/F divided by k, where k is the terminal slope of the log plasma concentration-time curve. The half-life (t1/2) was calculated as 0.693/k. All concentration data were normalized to dose (100 mg) and to weight (70 kg). Non-compartmental parameters were estimated with Phoenix® WinNonlin® (Certara L.P. (Pharsight), St. Louis, MO). Pharmacokinetic parameters were compared between HIV(–) and PI/r cohorts with Wilcoxon rank-sum tests, two-sided with significance set to 0.05. Statistical comparisons were not made with the EFV group due to the low enrollment/accrual in this cohort (n = 3).

Data set [4] can be described thus: Sertraline population pharmacokinetics (NONMEM, one-compartment model at steady-state). In kind it is in vivo, human. The note with it: for V/F / ka: typical population value, Estimate (% SE). Here is the method: A one-compartment model at steady-state with first-order absorption and elimination best described the data (ADVAN2 TRANS2, FOCE with interaction). A combined (additive and proportional) residual error model was used. Covariates were screened individually on each pharmacokinetic parameter (CL/F, V/F, and ka). For all models, goodness of fit were assessed with diagnostic plots. All covariates that improved model fit at p < 0.05 were included in the multivariate screen.

Where [5] appears, read: EFV cohort n = 3, median (minimum, maximum).
Setting [6] is: PI/r cohort n = 12, median (interquartile range).

Take `N[C@H]1CC[C@@H](c2ccc(Cl)c(Cl)c2)c2ccccc21` [N-desmethylsertraline]: the elimination half-life in data set [1] (metabolite, ref [5]) was 62 to 104 h.

Regarding `O=C1Nc2ccc(Cl)cc2[C@@](C#CC2CC2)(C(F)(F)F)O1` [Efavirenz], in data set [2], the AUC (as a rule, concentration integrated over time) is 24500 ng·h/mL; the Cmax (in general, the highest concentration seen after dosing) is 1300 ng/mL; the Clast was 1.3 (1.3, 3.4) μg/mL.

In the case of `CC(C)c1nc(CN(C)C(=O)N[C@H](C(=O)N[C@@H](Cc2ccccc2)C[C@H](O)[C@H](Cc2ccccc2)NC(=O)OCc2cncs2)C(C)C)cs1` [Ritonavir], in data set [2], the area under the curve (AUC) worked out at 4900 ng·h/mL; the Cmax was determined as 600 ng/mL; the Clast is recorded as 0.2 (0.1, 0.4) μg/mL.

For the molecule `COC(=O)N[C@H](C(=O)N[C@@H](Cc1ccccc1)[C@@H](O)CN(Cc1ccc(-c2ccccn2)cc1)NC(=O)[C@@H](NC(=O)OC)C(C)(C)C)C(C)(C)C` [Atazanavir], in data set [2], the AUC came out at 27200 ng·h/mL; the Cmax was 3800 ng/mL; the Clast was 1.2 (0.9, 2.6) μg/mL.

On to `CN[C@H]1CC[C@@H](c2ccc(Cl)c(Cl)c2)c2ccccc21` [Sertraline], for which the “sertraline exposures lower in EFV participants than HIV(–) and PI/r groups” value in data set [3] (EFV cohort n = 3) is recorded as ~ 50%. Besides, the C24 in data set [3] (EFV cohort n = 3, 24 h post-dose, median (minimum, maximum)) was 4.2 (2.9, 5.9) ng/mL. The Tmax is 6 (4, 6) hr in data set [3] (setting [5]); 4 (4, 6) hr in data set [3] (setting [6]); 4 h in data set [3] (human, in vivo). Also, the C0 in data set [3] (setting [5]) was 6 ng/mL and 6.0 (3.0, 7.0) ng/mL; in data set [3] (setting [6]) it was 10.0 (7.5, 15.9) ng/mL. Moreover, the “normalized trough concentrations, C0 and C24” value in data set [3] (HIV(-) and PI/r groups) lay in the range of 18 to 33 ng/mL. Also, the “sertraline exposure lower in the PI/r cohort than in HIV(–)” value in data set [3] (PI/r cohort compared to HIV(–)) is ~ 40% and 30–40%. The Cmax was 13.2 ng/mL in data set [3] (human, in vivo, 0.7 mg/kg, Cmax, EFV cohort n = 3, median (minimum, maximum)); 34.3 ng/mL in data set [3] (human, in vivo, 0.9 mg/kg, Cmax, PI/r cohort n = 12, median (interquartile range)); 46.7 ng/mL in data set [3] (human, in vivo, 1.3 mg/kg, Cmax, HIV(-) cohort n = 16, median (interquartile range)); 28.8 ng/mL in data set [3] (human, in vivo, 100 mg, Norm-Cmax, EFV cohort n = 3, normalized to 100 mg once daily and 70 kg, median (minimum, maximum)); 78.3 ng/mL in data set [3] (human, in vivo, 100 mg, Norm-Cmax, HIV(-) cohort n = 16, normalized to 100 mg once daily and 70 kg, median (interquartile range)); 46.9 ng/mL in data set [3] (human, in vivo, 100 mg, Norm-Cmax, PI/r cohort n = 12, normalized to 100 mg once daily and 70 kg, median (interquartile range)). For the same molecule, the AUC(0-t) (in general, the area under the concentration-time curve up to a stated or last time point) in data set [3] (human, in vivo, 100 mg, Norm-AUC0−24, EFV cohort n = 3, normalized to a 100 mg once daily dose and a weight of 70 kg, median (minimum, maximum)) was 473 ng·h/mL; in data set [3] (human, in vivo, 100 mg, Norm-AUC0−24, HIV(-) cohort n = 16, normalized to a 100 mg once daily dose and a weight of 70 kg, median (interquartile range)), 1180 ng·h/mL; in data set [3] (human, in vivo, 100 mg, Norm-AUC0−24, PI/r cohort n = 12, normalized to a 100 mg once daily dose and a weight of 70 kg, median (interquartile range)), 791 ng·h/mL; in data set [3] (human, in vivo, AUC0−24, EFV cohort n = 3, plasma, steady state, median (minimum, maximum)), 145 ng·h/mL; in data set [3] (human, in vivo, AUC0−24, HIV(-) cohort n = 16, plasma, steady state, median (interquartile range)), 652 ng·h/mL; in data set [3] (human, in vivo, AUC0−24, PI/r cohort n = 12, plasma, steady state, median (interquartile range)), 486 ng·h/mL. The concentration at 24 h in data set [3] (human, in vivo, 100 mg, Norm-C24, EFV cohort n = 3, normalized to 100 mg once daily and 70 kg, median (minimum, maximum)) amounted to 12.8 ng/mL; in data set [3] (human, in vivo, 100 mg, Norm-C24, HIV(-) cohort n = 16, normalized to 100 mg once daily and 70 kg, median (interquartile range)), 32.7 ng/mL; in data set [3] (human, in vivo, 100 mg, Norm-C24, PI/r cohort n = 12, normalized to 100 mg once daily and 70 kg, median (interquartile range)) it was 20.1 ng/mL; in data set [3] (human, in vivo, C24, EFV cohort n = 3, 24 h post-dose, median (minimum, maximum)) it was 4.2 ng/mL; in data set [3] (human, in vivo, C24, HIV(-) cohort n = 16, 24 h post-dose, median (interquartile range)), 17.5 ng/mL; in data set [3] (human, in vivo, C24, PI/r cohort n = 12, 24 h post-dose, median (interquartile range)), 12.6 ng/mL. Further, the half-life (usually the time needed for the level to fall by half in the phase considered) is 11.1 h in data set [3] (human, in vivo, T1/2, EFV cohort n = 3, median (minimum, maximum)); 26.4 h in data set [3] (human, in vivo, T1/2, HIV(-) cohort n = 16, median (interquartile range)); 18.1 h in data set [3] (human, in vivo, T1/2, PI/r cohort n = 12, median (interquartile range)); 26.7 h in data set [1] (single dose); 15.3 h in data set [1] (steady-state). Moreover, the CL/F – broadly, clearance divided by bioavailability, as obtained after extravascular dosing – was 75 mL/min/kg in data set [3] (human, in vivo, EFV cohort n = 3, median (minimum, maximum)); 23.3 mL/min/kg in data set [3] (human, in vivo, HIV(-) cohort n = 16, median (interquartile range)); 26.7 mL/min/kg in data set [3] (human, in vivo, PI/r cohort n = 12, median (interquartile range)). The concentration in data set [3] (EFV cohort n = 3, normalized to 100 mg once daily and 70 kg, median (minimum, maximum)) worked out at 13.1 ng/mL; in data set [3] (HIV(-) cohort n = 16, normalized to 100 mg once daily and 70 kg, median (interquartile range)), 33.3 ng/mL; in data set [3] (PI/r cohort n = 12, normalized to 100 mg once daily and 70 kg, median (interquartile range)) it was 17.8 ng/mL. In data set [1] (adults, children, and adolescents, ref [5]), the elimination half-life entry is listed as “about 27 h”. In data set [1] (adults, concomitant efavirenz, ref [13]), the “decrease of sertraline exposure (AUC0−24) by efavirenz” value was ~ 40%. Also, the “AUC0−24” value in data set [1] (after multiple dosing in prior adult studies, normalized to a 100 mg dose, ref [20]) is 1038 to 1532 ng·h/mL; in data set [1] (previous pediatric studies, normalized to 100 mg dose and 70 kg weight, ref [15], [17]) it was 883 to 2,535 ng·h/mL. Further, the half-life at steady-state is 15.3 h in data set [1] (lower end of dose range of 50–200 mg, ref [15], [17]) and 27.2 h in data set [1] (upper end of dose range of 50–200 mg, ref [15], [17]). Moreover, the “sertraline exposure (AUC0−24 and Cmax) lower in children and adolescents” value in data set [1] (plasma concentration adjusted for weight, compared to adults, ref [5], [9]) is recorded as ~ 22%. For the same molecule, the clearance was 83.1 L/h in data set [1] (population pharmacokinetic study of geriatric patients (median age = 76 years) with Alzheimer's Disease, ref [23]) and 1920 mL/min in data set [4] (human, plasma, oral, population model, for a typical 70 kg patient, read-out: estimated clearance (converted)). In addition, in data set [1] (therapeutic drug monitoring program, 100 mg daily doses, IQR 12–30 ng/mL, ref [21]), the median sertraline trough is reported as 20 ng/mL. In data set [4] (115 L/h vs 83.1 L/h in geriatric patients with Alzheimer's Disease), the “clearance higher than in geriatric population pharmacokinetic study” value came out at 38%. Also, the V/F in data set [4] (base model) is listed as 53.8 L/kg; in data set [4] (final model) it was 44.6 L/kg. Also, the ka was 0.45 1/h and 0.45 (16.2) 1/h in data set [4] (base model); 0.42 1/h and 0.42 (14.7) 1/h in data set [4] (final model).
